Calls of active or inactive are those of the source.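 How the source made its calls: active means Fitted curve of melting temperature shift crosses the 1.0 threshold at or below the sample's highest valid tested concentration; inconclusive means Flat fit with activity 30 to 70, or invalid fit; inactive means Opposite direction, flat within 30, or no crossing.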 Where only a bound is given, the exact number is not on record here.

The experiment deals with Fibroblast growth factor 22 (Homo sapiens) (UniProt Q9HCT0). The experiment is described as follows: FGF22 ligand-induced thermal stabilization – biophysical, thermal shift, cherry-pick, FGF22 synaptogenesis inhibitor project, dose response (AID 687022). Particulars: recombinant FGF22 thermal shift, SYPRO orange melting.
Chain of Fibroblast growth factor 22 (Homo sapiens) (Q9HCT0 whole entry, looked up): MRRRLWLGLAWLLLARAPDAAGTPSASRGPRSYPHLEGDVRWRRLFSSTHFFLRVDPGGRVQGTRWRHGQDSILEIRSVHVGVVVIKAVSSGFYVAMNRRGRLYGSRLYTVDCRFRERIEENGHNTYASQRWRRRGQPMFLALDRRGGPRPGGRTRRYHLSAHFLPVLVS

Consider `C[C@@H]1CN([C@@H](C)CO)S(=O)(=O)c2ccc(-c3ccncc3)cc2O[C@@H]1CN(C)C(=O)Nc1ccc(C(F)(F)F)cc1`, for which the AbsAC1 (concentration giving Tm-shift threshold 1.0) is 1.96 µM.
The same measure for `O=C(NN=Cc1ccc(O)cc1)c1ccccc1NS(=O)(=O)c1cccs1`: 5.76 µM; for `C[C@@H]1CN([C@@H](C)CO)S(=O)(=O)c2ccc(-c3ccc(F)cc3)cc2O[C@@H]1CN(C)C(=O)Nc1ccccc1F`: > 38 µM (inactive).
The same measure for `O=C(CCc1ccccc1)c1c(O)cc(O)cc1O`: > 5 µM (inactive).
With `Cc1onc(-c2ccccc2)c1C(=O)Nc1ncc([N+](=O)[O-])s1`, the AbsAC1 (concentration giving Tm-shift threshold 1.0) is 17.1 µM.
On to `C/C=C/c1ccc2c(c1)O[C@@H](CN(C)C(=O)Nc1cccc(F)c1)[C@@H](C)CN([C@@H](C)CO)S2(=O)=O`, for which the AbsAC1 (concentration giving Tm-shift threshold 1.0) is 7.47 µM.
With `O=C(NCC1CCOCC1)c1ccc2nc(Cc3cccc(Cl)c3)oc2c1`, the AbsAC1 (concentration giving Tm-shift threshold 1.0) was 6.43 µM.
For `CO[C@@H](CN(C)S(=O)(=O)c1cccc(Cl)c1)[C@@H](C)CN([C@H](C)CO)S(=O)(=O)c1cccc(Cl)c1` the value was 10.3 µM.
As for `O=C(N/N=C/c1ccncc1)c1cc2ccccc2o1`, the AbsAC1 (concentration giving Tm-shift threshold 1.0) was 6.07 µM.
For the compound `COc1cccc(NC(=O)N(C)C[C@H]2Oc3cc(-c4ccccc4F)ccc3S(=O)(=O)N([C@@H](C)CO)C[C@H]2C)c1`, the AbsAC1 (concentration giving Tm-shift threshold 1.0) is 5.23 µM.
For `COc1ccc2o/c(=N\O)c(C(=O)Nc3ccc(C)cc3)cc2c1` the value was 28 µM; for `O=C(NNC(=O)c1ccccc1F)c1ccc(NS(=O)(=O)c2ccc(F)cc2)cc1`, 18.2 µM.
The same measure for `CCOC(=O)c1ccc(S(=O)(=O)Nc2cc(C(=O)O)ccc2Cl)cc1`: 26.2 µM; for `Cc1cccc(S(=O)(=O)N2C[C@H](O)COC[C@H]3O[C@H](CC(=O)Nc4ccccc4)CC[C@@H]32)c1`: 7.19 µM; for `O=C(O)/C=C/c1cccc(NC(=O)Nc2ccc([N+](=O)[O-])cc2)c1`: 4.49 µM.
The same measure for `COc1ccc(OC)c(Nc2ccc(Nc3cc(OC)ccc3OC)nn2)c1`: 8.4 µM.
For the compound `COc1ccccc1NC(=O)N[C@@H]1CC[C@@H](CCn2cc(-c3ccccc3OC)nn2)O[C@@H]1CO`, the AbsAC1 (concentration giving Tm-shift threshold 1.0) is 4.76 µM.
Consider `N/C(=N\OCC(=O)Nc1ccc(F)c(Cl)c1)c1ccccc1`, for which the AbsAC1 (concentration giving Tm-shift threshold 1.0) was 4.58 µM.
The same measure for `CCN(CC)c1ccc(/C=N/NC(=O)c2c[nH]c3ccccc23)cc1`: 26.8 µM; for `CC(=O)Nc1ccc(S(=O)(=O)Nc2nc3ccc([N+](=O)[O-])cc3s2)cc1`: 23 µM; for `C[C@@H]1CN([C@H](C)CO)S(=O)(=O)c2ccc(-c3ccncc3)cc2O[C@@H]1CN(C)C(=O)Nc1ccc(C(F)(F)F)cc1`: 15.3 µM.
The same measure for `COc1ccc(/C=N/Nc2ccc([N+](=O)[O-])cc2)cc1O`: 4.37 µM; for `COc1ccccc1NC(=O)c1ccc(NC(=O)c2ccc(=O)[nH]c2)cc1`: 4.02 µM.
The same measure for `O=C(N/N=C\c1cccnc1)c1cc(-c2ccc(Cl)s2)[nH]n1`: > 38 µM (inactive).
Regarding `COc1ccc2nc(NC(=O)CCc3cc(OC)c(OC)c(OC)c3)sc2c1`, the AbsAC1 (concentration giving Tm-shift threshold 1.0) was 19.3 µM.
Take `NC(=O)Nc1ccc(C(=O)OCC(=O)Nc2sccc2C(N)=O)cc1`: the AbsAC1 (concentration giving Tm-shift threshold 1.0) was 23.8 µM.
For `O=C(N/N=C/c1cccc(Oc2ccccc2)c1)c1cccc(O)c1` the value was 3.12 µM; for `O=C(N/N=C/c1c[nH]c2ccccc12)C1CC1c1ccccc1` (stereo not drawn), 14 µM.
